Values quoted from earlier work in patent US20040128703A1, “Methods and compositions for the generation of humanized mice” (priority 2002, published 2004).
Read-outs that look alike come from different tables or passages of the source.

Columns and labels:
human PXR [1] = target: T1, human PXR (Homo sapiens, UniProt O75469); details: human PXR transfected into rat hepatocytes
T1 sequence (O75469 1-434): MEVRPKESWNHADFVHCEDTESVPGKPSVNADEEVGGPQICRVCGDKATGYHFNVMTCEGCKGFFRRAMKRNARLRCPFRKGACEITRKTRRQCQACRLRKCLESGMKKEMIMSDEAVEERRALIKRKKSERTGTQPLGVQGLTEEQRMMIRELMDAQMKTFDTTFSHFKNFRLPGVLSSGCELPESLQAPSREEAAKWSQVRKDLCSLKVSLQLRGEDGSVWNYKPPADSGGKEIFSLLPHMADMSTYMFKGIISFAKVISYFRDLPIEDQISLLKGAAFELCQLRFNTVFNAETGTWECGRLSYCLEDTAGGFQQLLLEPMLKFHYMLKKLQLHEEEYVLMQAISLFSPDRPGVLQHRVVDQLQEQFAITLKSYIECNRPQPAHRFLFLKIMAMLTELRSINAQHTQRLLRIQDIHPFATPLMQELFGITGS

[2] = system: CYP3A expression in rat hepatocytes
human PXR [3] = target: T1, human PXR; details: transgenic mice, native PXR partially deleted, human PXR gene targeted to the liver

## Clc1ccccc1C(c1ccccc1)(c1ccccc1)n1ccnc1 [clotrimazole]
Human PXR [1]
  CYP3A expression in rat hepatocytes transfected with human PXR: able to stimulate CYP3A expression
CYP3A4 expression
  CYP3A4 expression in human liver: stimulate CYP3A4 expression
[2]
  effect on CYP3A expression in rat hepatocytes: no effect
Human PXR [3]
  CYP3A expression in the mouse: induced CYP3A expression

## CC(=O)O[C@H]1C(=O)[C@@]2(C)[C@H]([C@H](OC(=O)c3ccccc3)[C@]3(O)C[C@H](OC(=O)[C@H](O)[C@@H](NC(=O)c4ccccc4)c4ccccc4)C(C)=C1C3(C)C)[C@]1(OC(C)=O)CO[C@@H]1C[C@@H]2O [Taxol]
P-glycoprotein
  P-glycoprotein induction: induced

## CCOP(=O)(OCC)C(=Cc1cc(C(C)(C)C)c(O)c(C(C)(C)C)c1)P(=O)(OCC)OCC [SR12813]
P-glycoprotein
  P-glycoprotein induction: induced

## O=C(O)c1cn(C2CC2)c2cc(N3CCNCC3)c(F)cc2c1=O [Ciprofloxacin]
gram-negative bacilli; 1994, US
  susceptibility of bacteria: 86%
gram-negative bacilli; 2000, US
  susceptibility of bacteria: 76%

## CCC1(c2ccccc2)C(=O)NC(=O)NC1=O [phenobarbital]
Human PXR [1]
  CYP3A expression in rat hepatocytes transfected with human PXR: able to stimulate CYP3A expression
CYP3A4 expression
  CYP3A4 expression in human liver: stimulate CYP3A4 expression
[2]
  effect on CYP3A expression in rat hepatocytes: no effect
